Data set [1] concerns Candida albicans (ATCC 10231). Kind of data set: Antimicrobial assay, broth microdilution, C. albicans. It is filed as cell-based. The arrangement: key to MIC C. albicans: -: no activity. As to conditions: MIC = 80% growth inhibition, tested 400 to 0.39 µg/mL; for MIC C. albicans: 24 h at 37 °C; for MIC: Candida albicans, ATCC10231, 24 h at 37 °C. How it is done: (§1) Meanwhile, the antimicrobial assays of compounds 1–9 were screened against Staphylococcus aureus (ATCC 25923), Escherichia coli (ATCC 25922) and Candida albicans (ATCC 10231).
(§2) The antimicrobial assays against S. aureus, E. coli and C. albicans were carried out by the broth microdilution method. The tested organisms were incubated overnight with shaking (200 rpm) in thermostatic oscillation incubator (37 °C) in Mueller Hinton broth (MHB) and liquid Sabourand medium for the bacteria and the fungus, respectively. The microbial inoculum density was adjusted to 1 × 10^6 cfu/mL with 0.9% saline solution by comparison with a MacFarland standard. The tested substances and positive drugs were dissolved in methanol to an initial concentration of 40 mg/mL. 4 μL of initial compound solution and 196 μL of MHB (liquid Sabourand medium for fungus) were added into the first well and mixed evenly. Then 100 μL of solution from the first hole, along with 2 μL of methanol and 98 μL of MHB (liquid Sabourand medium for fungus), were transferred to the second hole, and then shaken up as mixture uniform. The repetitive operation was performed to the eleventh one, from which 100 μL of solution well was discarded. Then, 100 μL of microbial suspension was added to the solutions in 96-well to achieve a final volume of 200 µL and final sample concentrations from 400 to 0.39 µg/mL. The blank well was also incubated with only medium under the same conditions. All experiments were carried out in triplicate and with chloramphenicol and ketoconazole as the positive controls. Optical density measurement for bacteria and fungus was recorded at 620 nm after incubation at 37 °C for 12 and 24 h, respectively. The minimal inhibitory concentration (MIC) was defined as the concentration at which the growth was inhibited 80% of the tested microorganisms.

The test system of data set [2] is Escherichia coli (ATCC 25922). Kind of data set: Antimicrobial assay, broth microdilution, E. coli. It is filed as cell-based. The arrangement: key to MIC E. coli: -: no activity. To be noted: MIC = 80% growth inhibition, tested 400 to 0.39 µg/mL; for MIC: Escherichia coli, ATCC25922, 12 h at 37 °C; for MIC E. coli: 12 h at 37 °C. As to the method: as §1, §2
(In general: In broth dilution the organism is exposed to a series of concentrations in liquid medium.)

The subject of data set [3] is Staphylococcus aureus (ATCC 25923). Description: Antimicrobial assay, broth microdilution, S. aureus. The arrangement: key to MIC S. aureus: -: no activity. As to conditions: MIC = 80% growth inhibition, tested 400 to 0.39 µg/mL; for MIC: Staphylococcus aureus, ATCC25923, 12 h at 37 °C. In kind it is cell-based. As to the method: as §1, §2
The test system of data set [4] is human promyelocytic leukemia (HL60) cell line. Kind of data set: cells. As to conditions: HL-60, read-out: IC50 cytotoxicity against HL60. As to the method:
(§3) The cytotoxic activity against HL60, A549 and HL-7702 cell lines was performed by the MTT method as previously described.

Data set [5] relates to human lung adenocarcinoma (A549) cell line. Description: Cytotoxicity by the MTT method, A549. As to conditions: A549, read-out: IC50 cytotoxicity against A549. As to the method: as §3
For orientation: Tetrazolium assays rely on reduction of a dye to a coloured formazan, in cell work by metabolically active cells.

A further data set in a line: in vitro. To be noted: human. As to the method:
as §3

pIC50: −log10 of the molar value. Values after ≈ are worked out from the molar mass of the structure shown.

The term MIC denotes the least concentration at which growth counts as inhibited. Consider `COC1=CC(=O)OC12Oc1cc(O)cc(C)c1CC2C` (racemic) [Compound 4, (±)-Aspersclerolide D], for which the “MIC C. albicans” value in data set [1] is given as “-”. Also, the MIC in data set [2] and in data set [3] was more than 400 µg/mL throughout.

`COC1=CC(=O)C(C)C1O` (racemic) [Compound 5, (±)-4-hydroxy-3-methoxy-5-methyl-2-cyclopentenone]: in data set [1], the “MIC C. albicans” value is “-”. Moreover, the “MIC E. coli” value in data set [2] is given as “-”. Moreover, in data set [3] (12 h at 37 °C), the “MIC S. aureus” value is recorded as “-”.

For orientation: pIC50 means the IC50 on a negative log10 scale, so that one unit is a factor of ten. Turning to `CC(=O)C1(O)OC(=O)C=C1C` (stereo not drawn) [Compound 1, Aspersclerolide A], in data set [1], the “MIC C. albicans” value is “-”. Also, the MIC in data set [2] and in data set [3] was more than 400 µg/mL throughout. The pIC50 is 5.19 in data set [4], 5.05 in data set [5] and 4.75 in the data set “in vitro”.

On to `COC(CO)C1(O)OC(=O)C=C1C` (stereo not drawn) [Compound 2, Aspersclerolide B], for which the “MIC C. albicans” value in data set [1] is reported as “-”. For the same molecule, the MIC in data set [2] and in data set [3] was 200 µg/mL (≈ 1060 µM) each time.

Turning to `COC1=CC(=O)OC1(O)C(C)Cc1c(C)cc(O)cc1O` (stereo not drawn) [Compound 3, Aspersclerolide C], in data set [1], the “MIC C. albicans” value is “-”. Further, the MIC in data set [2] and in data set [3] was 200 µg/mL (≈ 680 µM) throughout. Also, the pIC50 in data set [4] was 4.92; in data set [5], 4.78; in the data set “in vitro”, 4.64.

In the case of `COC1=CC(=O)OC1(O)C(C)CO` (stereo not drawn) [Compound 6, 6-hydroxyl dihydropenicillic acid], the “MIC C. albicans” value in data set [1] is given as “-”. The “MIC E. coli” value in data set [2] is on record as “-”. The minimum inhibitory concentration (MIC) in data set [3] is more than 400 µg/mL.

`C=C(OC)C1(O)OC(=O)C=C1C` (stereo not drawn) [Compound 7, spersclerotioron G]: the “MIC C. albicans” value in data set [1] was “-”. Moreover, the “MIC E. coli” value in data set [2] is “-”. Moreover, in data set [3], the MIC was more than 400 µg/mL.

In the case of `C=C(C)C1(O)OC(=O)C=C1OC` (stereo not drawn) [Compound 8, penicillic acid], the MIC in data set [1] turned out to be 50 µg/mL (≈ 294 µM); in data set [2], 12.5 µg/mL (≈ 73.5 µM); in data set [3] it was 6.25 µg/mL (≈ 36.7 µM).

With `COC1=CC(=O)OC1(O)C(C)C` (stereo not drawn) [Compound 9, dihydropenicillic acid], in data set [1], the “MIC C. albicans” value was “-”. Moreover, the “MIC E. coli” value in data set [2] is recorded as “-”. Also, the MIC in data set [3] was more than 400 µg/mL.

Take `O=C(N[C@H](CO)[C@H](O)c1ccc([N+](=O)[O-])cc1)C(Cl)Cl` [chloramphenicol, reference compound]: the results for the MIC in data set [2] and in data set [3] were 6.25 µg/mL (≈ 19.3 µM) and 3.12 µg/mL (≈ 9.66 µM), respectively.

In the case of `COc1cccc2c1C(=O)c1c(O)c3c(c(O)c1C2=O)C[C@@](O)(C(=O)CO)C[C@@H]3O[C@H]1C[C@H](N)[C@H](O)[C@H](C)O1` [doxorubicin, reference compound], the negative-log IC50 (pIC50) is 6.07 in data set [4]; 5.82 in data set [5]; 5.08 in “in vitro” (HL-7702 cells (human normal liver, non-cancer)).

For `CC(=O)N1CCN(c2ccc(OCC3COC(Cn4ccnc4)(c4ccc(Cl)cc4Cl)O3)cc2)CC1` (stereo not drawn) [ketoconazole, reference compound], 6.25 µg/mL (≈ 11.8 µM) was the least that counted as inhibitory in data set [1] (MIC).

These data come from publication PMC6680918, “New Butenolides and Cyclopentenones from Saline Soil-Derived Fungus Aspergillus Sclerotiorum” (Molecules, 2019).
